In patent US20260191968A1, “PROTAC DEGRADERS OF MLLT1 AND/OR MLLT3” (DARK BLUE THERAPEUTICS LTD, priority 2024, published 2026):

Assays:
MLLT1 = biological target: T1, MLLT1 (Homo sapiens, UniProt Q03111); assay: MLLT1 degradation assay in MV4-11 cells (JESS chemiluminescent detection), three concentrations, 24 h; type: cell-based; conditions: with respect to DMSO control
T1 construct: host or cells: MV4-11
T1 sequence (Q03111 1-559): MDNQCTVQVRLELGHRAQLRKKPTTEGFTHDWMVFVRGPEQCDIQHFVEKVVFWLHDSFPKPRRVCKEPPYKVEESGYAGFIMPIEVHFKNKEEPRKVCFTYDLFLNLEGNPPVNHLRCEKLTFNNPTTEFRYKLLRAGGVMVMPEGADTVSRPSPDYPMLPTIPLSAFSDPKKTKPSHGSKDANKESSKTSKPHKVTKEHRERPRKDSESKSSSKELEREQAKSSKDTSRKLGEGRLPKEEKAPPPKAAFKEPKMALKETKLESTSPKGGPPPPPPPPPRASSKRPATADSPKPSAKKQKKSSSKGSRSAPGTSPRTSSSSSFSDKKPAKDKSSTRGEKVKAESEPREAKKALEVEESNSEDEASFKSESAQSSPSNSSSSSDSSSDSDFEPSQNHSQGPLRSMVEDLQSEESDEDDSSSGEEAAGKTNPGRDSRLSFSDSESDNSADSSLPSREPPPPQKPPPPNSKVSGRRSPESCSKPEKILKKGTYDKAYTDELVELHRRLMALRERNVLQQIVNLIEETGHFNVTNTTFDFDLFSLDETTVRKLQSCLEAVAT
Procedure, shortened: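 Read-out is % MLLT1 degradation versus DMSO, from band peak areas on a JESS chemiluminescent system. Cells (MV4-11) were exposed for 24 h at 37° C to three compound levels, 10, 100 and 1000 nM, in 0.1% DMSO.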

MV4-11 cells = assay: MV4-11 cellular proliferative assay, Assay Format B (CTG 2.0, 168 h); type: cell-based; conditions: Homo sapiens, 168 h (7 days), CTG 2.0, read-out: IC50 (MV4-11 cellular proliferative assay, Assay format B)
Method: MV4-11 cells at a confluency of ~50-80% was used for cell growth assay. 600 cells/well in a 384-well opaque cell culture plate (6007680; Perkin Elmer) were seeded in 40 μL of complete medium (IMDM+10% FBS+1X Penicillin-Streptomycin). Cells were incubated overnight at 37° C., 5% CO2. 10 mM DMSO stocks were prepared, cells were treated with 10 concentrations of test compounds starting from 1 uM or 100 nM, 3-fold dilution in 10 uL (5×concentration) of complete medium. Final DMSO concentration was 0.3%. Culture plates were centrifuged at 40×g, 30s. Cells were incubated with compounds for 168 h (7 days). After 7 days, 20 uL CTG 2.0 reagent (G9242; Promega) was added per well and luminescence reading was taken in Envision Xcite 2105 multimode plate reader. Data was analyzed in GraphPad Prism 10.0 and data was shown as % viability with respect to DMSO control and dose-response curves were generated using four parameter logistic regression. Assay quality was determined by z-factor calculation using positive and negative controls.

Row | Structure (SMILES) | MLLT1% Degradation @ 0.01 μM (MLLT1) | MLLT1% Degradation @ 0.1 μM (MLLT1) | MLLT1% Degradation @ 1 μM (MLLT1) | IC50 (MV4-11 cells) [nM]
1 | CN1CCC[C@@H]1c1cc2cnc(NC(=O)c3ccc(CCCC4CCN(c5cccc6c5CN([C@H]5CCC(=O)NC5=O)C6=O)CC4)cc3F)cc2[nH]1 (relative stereo) [Example 175, 4-(3-(1-(2-((rel-S)-2,6-dioxopiperidin-3-yl)-1-oxoisoindolin-4-yl)piperidin-4-yl)propyl)-2-fluoro-N-(2-((R)-1-methylpyrrolidin-2-yl)-1H-pyrrolo[3,2-c]pyridin-6-yl)benzamide] | A (Category A: A ≥ 75% degradation) | A (Category A: A ≥ 75% degradation) | A (Category A: A ≥ 75% degradation) | ≤ 100
2 | CN1CCC[C@@H]1c1cc2cnc(NC(=O)c3ccc(OCC#Cc4cccc5c4CN(C4CCC(=O)NC4=O)C5=O)nc3)cc2[nH]1 (stereo partly drawn) [Example 2, 6-((3-(2-(2,6-dioxopiperidin-3-yl)-1-oxoisoindolin-4-yl)prop-2-yn-1-yl)oxy)-N-(2-((R)-1-methylpyrrolidin-2-yl)-1H-pyrrolo[3,2-c]pyridin-6-yl)nicotinamide] | A (Category A: A ≥ 75% degradation) | A (Category A: A ≥ 75% degradation) | A (Category A: A ≥ 75% degradation) | ≤ 100
3 | CN1CCC[C@@H]1c1cc2cnc(NC(=O)c3ccc(N4CCN(CC#Cc5cccc6c5CN(C5CCC(=O)NC5=O)C6=O)CC4)nc3)cc2[nH]1 (stereo partly drawn) [Example 6, 6-(4-(3-(2-(2,6-dioxopiperidin-3-yl)-1-oxoisoindolin-4-yl)prop-2-yn-1-yl)piperazin-1-yl)-N-(2-((R)-1-methylpyrrolidin-2-yl)-1H-pyrrolo[3,2-c]pyridin-6-yl)nicotinamide] | A (Category A: A ≥ 75% degradation) | A (Category A: A ≥ 75% degradation) | B (Category B: 50% ≤ B < 75% degradation) | ≤ 100
4 | CN1CCC[C@@H]1c1cc2cnc(NC(=O)c3ccc(CCCCC#Cc4cccc(C(=O)N[C@H]5CCC(=O)NC5=O)n4)cc3)cc2[nH]1 [Example 7, N—((S)-2,6-dioxopiperidin-3-yl)-6-(6-(4-((2-((R)-1-methylpyrrolidin-2-yl)-1H-pyrrolo[3,2-c]pyridin-6-yl)carbamoyl)phenyl)hex-1-yn-1-yl)picolinamide] | A (Category A: A ≥ 75% degradation) | A (Category A: A ≥ 75% degradation) | A (Category A: A ≥ 75% degradation) | ≤ 100
5 | CN1CCC[C@@H]1c1cc2cnc(NC(=O)c3ccc(CCCCC#Cc4cccc(N5CCC(=O)NC5=O)n4)cc3)cc2[nH]1 [Example 9, (R)-4-(6-(6-(2,4-dioxotetrahydropyrimidin-1(2H)-yl)pyridin-2-yl)hex-5-yn-1-yl)-N-(2-(1-methylpyrrolidin-2-yl)-1H-pyrrolo[3,2-c]pyridin-6-yl)benzamide] | A (Category A: A ≥ 75% degradation) | A (Category A: A ≥ 75% degradation) | A (Category A: A ≥ 75% degradation) | ≤ 100

The remaining lines, values ahead:

Row | MLLT1% Degradation @ 0.01 μM (MLLT1) | MLLT1% Degradation @ 0.1 μM (MLLT1) | MLLT1% Degradation @ 1 μM (MLLT1) | IC50 (MV4-11 cells) [nM] | Structure (SMILES)
6 | A (Category A: A ≥ 75% degradation) | A (Category A: A ≥ 75% degradation) | A (Category A: A ≥ 75% degradation) | ≤ 100 | C[C@@H]1CN(CC2CCN(c3cccc4c3CN(C3CCC(=O)NC3=O)C4=O)CC2)CCN1c1ccc(C(=O)Nc2cc3[nH]c([C@H]4CCCN4C)cc3cn2)cc1 (relative stereo) [Example 135, 4-((R)-4-((1-(2-((rel-S)-2,6-dioxopiperidin-3-yl)-1-oxoisoindolin-4-yl)piperidin-4-yl)methyl)-2-methylpiperazin-1-yl)-N-(2-((R)-1-methylpyrrolidin-2-yl)-1H-pyrrolo[3,2-c]pyridin-6-yl)benzamide]
7 | A (Category A: A ≥ 75% degradation) | A (Category A: A ≥ 75% degradation) | A (Category A: A ≥ 75% degradation) | ≤ 100 | CN1CCC[C@@H]1c1cc2cnc(NC(=O)c3ccc(CCCC4CCN(c5cccc6c5CN([C@@H]5CCC(=O)NC5=O)C6=O)CC4)cc3F)cc2[nH]1 (relative stereo) [Example 176, 4-(3-(1-(2-((rel-R)-2,6-dioxopiperidin-3-yl)-1-oxoisoindolin-4-yl)piperidin-4-yl)propyl)-2-fluoro-N-(2-((R)-1-methylpyrrolidin-2-yl)-1H-pyrrolo[3,2-c]pyridin-6-yl)benzamide]
8 | A (Category A: A ≥ 75% degradation) | A (Category A: A ≥ 75% degradation) | A (Category A: A ≥ 75% degradation) | ≤ 100 | CN1CCC[C@@H]1c1cc2cnc(NC(=O)c3ccc(CCCC4CCN(c5cccc6c5CN(C5CCC(=O)NC5=O)C6=O)CC4)cc3)cc2[nH]1 (stereo in doubt) [Example 77, 4-(3-(1-(2-((rel-S)-2,6-dioxopiperidin-3-yl)-1-oxoisoindolin-4-yl)piperidin-4-yl)propyl)-N-(2-((R)-1-methylpyrrolidin-2-yl)-1H-pyrrolo[3,2-c]pyridin-6-yl)benzamide]
9 | A (Category A: A ≥ 75% degradation) | A (Category A: A ≥ 75% degradation) | A (Category A: A ≥ 75% degradation) | ≤ 100 | CN1CCC[C@@H]1c1cc2cnc(NC(=O)c3ccc(OC4CCN(CC5CCN(c6cccc7c6CN(C6CCC(=O)NC6=O)C7=O)CC5)CC4)cc3)cc2[nH]1 (stereo in doubt) [Example 122, 4-((1-((1-(2-((rel-S)-2,6-dioxopiperidin-3-yl)-1-oxoisoindolin-4-yl)piperidin-4-yl)methyl)piperidin-4-yl)oxy)-N-(2-((R)-1-methylpyrrolidin-2-yl)-1H-pyrrolo[3,2-c]pyridin-6-yl)benzamide]
10 | A (Category A: A ≥ 75% degradation) | A (Category A: A ≥ 75% degradation) | A (Category A: A ≥ 75% degradation) | ≤ 100 | CN1CCC[C@@H]1c1[nH]c2cc(NC(=O)c3ccc(OCCC4CCN(c5cccc6c5CN(C5CCC(=O)NC5=O)C6=O)CC4)cc3)ncc2c1Cl (stereo in doubt) [Example 161, N-(3-chloro-2-((R)-1-methylpyrrolidin-2-yl)-1H-pyrrolo[3,2-c]pyridin-6-yl)-4-(2-(1-(2-((rel-S)-2,6-dioxopiperidin-3-yl)-1-oxoisoindolin-4-yl)piperidin-4-yl)ethoxy)benzamide]
11 | A (Category A: A ≥ 75% degradation) | A (Category A: A ≥ 75% degradation) | A (Category A: A ≥ 75% degradation) | ≤ 100 | CN1CCC[C@@H]1c1cc2cnc(NC(=O)c3ccc(OCCC4CCN(c5cccc6c5CN(C5CCC(=O)NC5=O)C6=O)CC4)cc3F)cc2[nH]1 (stereo in doubt) [Example 172, 4-(2-(1-(2-((rel-S)-2,6-dioxopiperidin-3-yl)-1-oxoisoindolin-4-yl)piperidin-4-yl)ethoxy)-2-fluoro-N-(2-((R)-1-methylpyrrolidin-2-yl)-1H-pyrrolo[3,2-c]pyridin-6-yl)benzamide]
